Measurements taken from US20040072750A1, “Compounds and methods for the modulation of CD154” (priority 2001, published 2004).
“Also recorded” adds a separate entry of the source. Bridge positions count the residues as written; N and C are the ends. Square brackets hold non-standard residues; d marks the D form. Peptide text beside a SMILES is read from it. hArg = N=C(N)NCCCC[C@H](N)C(=O)O; Mpa = O=C(O)CCS

B1: rsCD154: bacterially expressed recombinant human soluble CD154 (108 a.a-261 a.a.), 18-kDa protein (protein)
chain: ENSFEMQKGDQNPQIAAHVISEASSKTTSVLQWAEKGYYTMSNNLVTLENGKQLTVKRQGLYYIYAQVTFCSNREASSQAPFIASLCLKSPGRFERILLRAANTHSSAKPCGQQSIHLGGVFELQPGASVFVNVTDPSQVSHGTGFTSFGLLKL

Legend:
washed platelets [1] = experiment: Western blot analysis of immunoprecipitated platelet CD154 (hydrolysis to 18 kDa sCD154); type: cell-based, human
Source text: As previously described, CD154 exists as a 33/31 kDa doublet in unstimulated platelets.

platelets [2] = experiment: Platelet surface expression of CD154 and release of thrombospondin; type: cell-based, human
platelets in whole blood = experiment: Perfusion chamber: thrombus formation of whole blood on protein-coated surface under shear; type: cell-based, human
Description: The effect of CD154 on the aggregation of platelets under conditions of high shear stress were evaluated. Recombinant CD154 (rCD154 or rCD40L) was compared to fibrinogen (Fg) in its ability to form thrombi as well as in combination with Fg. Controls also included CD154 in which the KGD eptifibatide-recognition sequence was mutated to KGE (CD154(KGE) or CD40L(KGE)). Briefly, a silicone gasket with a flow path height of 127 μm was placed between a flat perfusion chamber (Glycotech, Rockville, Md.) and a protein-coated petri dish as described (Andre, P. et al., Nature Medicine, 8:247-252 (2002)). Petri dishes were coated with rCD40L, Fibrinogen (Fg), rCD40L+Fg, mutated CD40L (CD40L(KGE)), CD40L(KGE)+Fg. In one experiment, the glycoprotein IIb/IIIa antagonist eptifibatide (2 μM) was incubated with whole blood before perfusion over the rCD40L-coated surface. When Fg was coated with either rCD40L or CD40L(KGE), each molecule was deposited at 25 μg/cm^2. Coating of the proteins was performed using the spray method in which 25 μl of a 1 mg/ml protein solution is coated onto the plastic with a retouching air brush resulting in a concentration of 25 μg/cm^2 (Houdijk, WP et al., J. Clin. Invest., 75:531-540 (1985)). Human peripheral blood was collected on PPACK (40 μmol/L final concentration) and perfused for 4 minutes over the protein-coated surface. Shear rates of 1500-1600/s, 500-600/s and 100-200/s, were generated with flow rates of ˜0.6, 0.25 and 0.075 ml/min, respectively. Measurements of thrombotic deposits were performed using the Simple PCI software image analysis program (Technical Instrument, Burlingame, Calif.).

washed platelets [3] = experiment: Fibrinogen binding to washed platelets and microparticle generation (flow cytometry); type: cell-based, human
Description: Venous blood was collected from normal donors into ACD buffer (85 mM Sodium Citrate, […] and 71 mM Citric acid) containing 0.05 μg/ml prostaglandin 12(PGI2). Blood was later centrifuged at 160×g for 20 minutes to collect platelet rich plasma (PRP). PRP was centrifuged at 1100×g for 10 minutes to sediment platelets. Platelets were washed twice with CGS buffer (13 mM trisodium citrate, 120 mM sodium chloride and 30 mM dextrose pH 7.0). The first wash had 0.03 μg/ml PGI2. Washed platelets were finally suspended in Tyrodes-Hepes buffer (12 mM sodium bi-carbonate, 138 mM sodium chloride, 5.5 mM glucose, 2.9 mM potassium chloride, 10 mM Hepes, 1 mM calcium chloride and 1 mM magnesium chloride, pH 7.4).
Washed platelets (1×10^7/ml) were incubated for 60 minutes at 37° C. with 2 μM soluble CD154 (sCD154) or mutant sCD154 (D117E mutation in the KGD sequence) in the presence or absence of eptifibatide or anti-CD40 antibody. All incubations had 100 nM Alexa-Fibrinogen (Molecular probes, Eugene, Oreg.). Samples were diluted 10 fold with stain buffer (BD Pharmingen, Los Angeles, Calif.) after incubation and analyzed by flow cytometry (FACSort, BD, San Jose, Calif.).

platelets [4] = experiment: Release of sCD154 from stimulated platelets in platelet-rich plasma (ELISA); type: cell-based, human; details: unstirred, FIG. 12B
[5] = system: Human umbilical vein endothelial cells (HUVECS); experiment: Inflammatory response of endothelial cells to rsCD154 (MCP-1 ELISA, tissue factor clotting assay, ICAM-1/E-Selectin FACS); type: cell-based
Description: Inflammation in the present invention study was measured by the upregulation of tissue factor on cultured endothelial cells. Endothelial cells were the cells selected for study as this is the most abundant cell exposed to blood and is known to express […], the ligand for CD154 (Yellin, MJ, J. Exp Med, 182: 1857(1995)).
Human umbilical vein endothelial cells (HUVECS) purchased from Clonetics Inc. were cultured with M199 containing 20% FBS, 50 μg/ml endothelial mitogen (Biomedical technologies Inc.) 2 mM glutamine, 1 mM Sodium Pyruvate, 1× Nonessential amino acids, 100 U/ml of penicillin/streptomycin and 100 μg/ml heparin. HUVECS (passage 3-5) grown in 6 well dishes or 96 well tissue culture plates coated with 0.75% bovine skin gelatin (Sigma chemicals) were incubated without and with different concentrations (100 ng-10 μg/ml) of rsCD 154 in the presence of TRAP-1 (monoclonal antibody against hCD154, BD Pharmingen) or MOPC-21 (mouse IgG, Sigma) for 4 hrs at 37° C. in Tyrode's-Hepes buffer (12 mM NaHCO3, 138 mM NaCl, 5.5 mM glucose, 2.9 mM KCl, 10 mM Hepes, 1 mM CaCl2, 1 mM MgCl2, pH 7.4). […]
The supernatants were collected and the concentrations of MCP-1 determined by ELISA. Expression of tissue factor was determined by clotting assays performed with the HUVECS in the 96 well plates. […] The expression of ICAM-1 and E-Selectin was determined by FACS analysis (FACSort, Beckton Dickinson) following release of the HUVECS from the dishes. HUVECS, when exposed to 2 μg/ml rsCD154, secreted 3 fold more MCP-1 after 4 hrs and this increase was blocked by anti-CD154 antibody, but not by an isotype matched control antibody. As measured by clotting assay there was 50% reduction in clotting time, which was reversed in the presence of TRAP-1.

Row | Molecule | hydrolysis of CD154 and release of sCD154 from stimulated platelets (washed platelets [1]; 5 μmol/L TRAP plus 2.5 μmol/L eptifibatide, 30 minutes) | CD154 hydrolysis and appearance of the soluble 18 kDa fragment (washed platelets [1]; TRAP aggregation, 5 μM eptifibatide) | thrombin- or TRAP-induced surface expression of CD154 (platelets [2]) | TRAP-induced release of thrombospondin (platelets [2]; data not shown) | Binding of platelets to the rCD40L (platelets in whole blood; eptifibatide 2 μM incubated with whole blood) | effect on sCD154-induced fibrinogen binding and microparticle generation (washed platelets [3]; 2 μM sCD154, eptifibatide 2.5 μM) | sCD154 shedding from TRAP-activated platelets without aggregation (platelets [4]) | increased expression of ICAM-1 and E-Selectin ([5]; 2 μg/ml of rsCD154, FACS) | MCP-1 secretion by HUVECS ([5]; 2 μg/ml rsCD154, 4 hrs) | reduction in clotting time (tissue factor clotting assay) ([5]; HUVECS exposed to rsCD154) | aggregation process (mean thrombus area) on coated surface versus Fg (platelets in whole blood; shear rate of 1500-1600/s, 25 μg/cm^2 coating) | fibrinogen binding to platelets and generation of microparticles (washed platelets [3]; 2 μM protein, 60 minutes at 37° C., FIG. 10)
1 | N=C(N)NCCCC[C@@H]1NC(=O)CCSSC[C@@H](C(N)=O)NC(=O)[C@@H]2CCCN2C(=O)[C@H](Cc2c[nH]c3ccccc23)NC(=O)[C@H](CC(=O)O)NC(=O)CNC1=O [eptifibatide] ([Mpa][hArg]GDWPC-NH2; disulfide 1-7) | inhibited | prevented | did not affect; also recorded: unaffected | did not affect; also recorded: without affecting | inhibited | inhibited | inhibited |  |  |  |  | 
2 | B1 |  |  |  |  |  |  |  | 2 fold | 3 fold | 50% | significantly enhances | induced
